Here are results for one compound from paper PMC10531759, “Key Amino Acid Residues Involved in Binding Interactions between Bactrocera minax Odorant-Binding Protein 3 (BminOBP3) and Undecanol” (Insects, 2023).

Substitutions are numbered along the chain they refer to. Entries after “also recorded” stand apart in the source; their conditions may differ.

Assay [1] deals with T1, 3D2a (mutant that lacks F121 and P122 from the C-terminus of BminOBP3) (Bactrocera minax, UniProt A0A3G2LEF2).
T1 sequence (A0A3G2LEF2 27-113): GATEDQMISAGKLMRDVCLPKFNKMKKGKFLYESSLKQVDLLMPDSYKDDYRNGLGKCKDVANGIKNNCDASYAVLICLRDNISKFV
As to the kind of experiment: Fluorescence competitive binding assay (1-NPN displacement by undecanol), 3D2a mutant. The settings on record: undecanol up to 36 μM. The protocol:
(§1) In order to explore the binding affinities of BminOBP3 and its mutants to undecanol, the binding assays were conducted on a fluorescence spectrophotometer (F-7000; Hitachi, Japan) with parameters set same as the previous study. The fluorescent probe 1-NPN and undecanol were diluted in the HPLC methanol to 1 mM, whereas the protein samples were dissolved in 20 mM Tris-HCL pH 7.4 to obtain 2 μM protein solutions.
(§2) To measure the dissociation constant (Kd) of 1-NPN to BminOBP3 and mutants, aliquots of 1 mM 1-NPN were added to the 2 μM protein solution with a final concentration of 1-NPN ranging from 0 to 22 μM, and the resulting fluorescence intensity values of the maximum fluorescence emission were recorded for the construction of binding curves and Scatchard plots. Bound 1-NPN was determined by fluorescence intensities with the assumption that the protein was 100% active, and it binds the ligands at a 1:1 stoichiometric ratio when saturated. […] The maximal fluorescence intensity values were plotted against undecanol concentrations. The inhibition constant (Ki) of each protein was calculated based on the following equation: Ki = [IC50]/(1 + [1-NPN]/K1-NPN). IC50 is the concentration of ligand halving initial fluorescence intensity; [1-NPN] is the free concentration of 1-NPN; and K1-NPN is the dissociation constant of the protein/1-NPN complex. […]

Assay [2] has as its system Y84A (BminOBP3-Y84A mutant). As to the kind of experiment: Fluorescence binding assay with undecanol, Y84A mutant. The settings on record: Figure S7 and Table S2. Set-up: species or system Bactrocera minax. The protocol:
as §1
as §2, with “[1-NPN]/K1-NPN).” for “[1-NPN]/K1-NPN). IC50 is the concentration of ligand halving initial fluorescence intensity; [1-NPN] is the free concentration of 1-NPN; and K1-NPN is the dissociation constant of the protein/1-NPN complex.”
(§3) (the information regarding 13 ligands see Supplemental Data Table S4). […] Conformation 3 was an effective conformation, which is shown in Figure 2A, as it was validated by subsequent mutagenesis studies and fluorescence binding assays. […]

Assay [3] addresses T2, V120A (BminOBP3-V120A mutant) (Bactrocera minax, UniProt A0A3G2LEF2, V113A).
T2 sequence (A0A3G2LEF2 27-115 V113A): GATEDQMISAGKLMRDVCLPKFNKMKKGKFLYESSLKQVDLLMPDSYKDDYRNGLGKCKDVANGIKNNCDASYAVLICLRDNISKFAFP
Briefly: Fluorescence competitive binding assay (1-NPN displacement by undecanol), V120A mutant. The settings on record: undecanol up to 36 μM. The protocol: as §1, §2

Assay [4] has as its system T57A (BminOBP3-T57A mutant). Briefly: Fluorescence binding assay with undecanol, T57A mutant. Set-up: species or system Bactrocera minax. The settings on record: Figure S7 and Table S2. The protocol: as §1
as §2, with “[1-NPN]/K1-NPN).” for “[1-NPN]/K1-NPN). IC50 is the concentration of ligand halving initial fluorescence intensity; [1-NPN] is the free concentration of 1-NPN; and K1-NPN is the dissociation constant of the protein/1-NPN complex.”
as §3

Assay [5] deals with T3, BminOBP3 (wild-type protein) (Bactrocera minax, UniProt A0A3G2LEF2).
T3 sequence (A0A3G2LEF2 27-115): T2 sequence (A0A3G2LEF2 27-115 V113A) with A87V
Set-up: method as in PMID 34668560. To be noted: competitive fluorescence binding experiments of previous study; cited from earlier work.

The target of assay [6] is T4, T-OBP3 (mutant that lacks I116-P122 from the C-terminus of BminOBP3) (Bactrocera minax, UniProt A0A3G2LEF2).
T4 sequence (A0A3G2LEF2 27-108): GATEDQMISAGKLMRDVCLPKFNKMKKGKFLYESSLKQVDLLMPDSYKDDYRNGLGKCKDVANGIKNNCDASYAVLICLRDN
As to the kind of experiment: Fluorescence competitive binding assay (1-NPN displacement by undecanol), C-terminus truncated mutant. The settings on record: compared with wild-type protein. The protocol: as §1, §2

Assay [7] concerns the target T3, BminOBP3 (wild-type protein). Briefly: Fluorescence competitive binding assay (1-NPN displacement by undecanol), wild-type protein. To be noted: pH 5.0 compared with pH 7.4; Figure S8 and Table S3. The protocol: as §1, §2

With `CCCCCCCCCCCO` [undecanol, 1-undecanol], the “binding to undecanol (in words)” value in assay [1] and in assay [3] was “completely abolished; also recorded: completely lost their binding capacity” throughout. Also, the “affinity to undecanol compared with the wild-type protein (in words)” value in assay [2] and in assay [4] was “obvious increase” in each case. For the same compound, the “binding affinity of BminOBP3 among 13 ligands tested (in words)” value in assay [5] is reported as “strong binding affinity”. The “affinity for undecanol compared with BminOBP3 (in words)” value in assay [6] is given as “significant decrease”. Further, the “affinity between BminOBP3 and undecanol at acidic pH (in words)” value in assay [7] was “significant decrease”.
